Laboratory results taken from ChEMBL document CHEMBL1201862, “PubChem BioAssay data set” (2004).
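Tested at 5 concentrations; 48 h exposure; 96-well plates; endpoints linearly interpolated, else capped at highest concentration. Here, GI50 denotes the concentration required for 50% inhibition of growth.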 Active and inactive are the calls of the source. Rule as the data show it: active = GI50 up to about 1.1 µM and inactive = higher.

Legend:
Assay in all cases: NCI tumour cell line growth inhibition, 48 h
NCI-H226 = system: NCI-H226
OVCAR-8 = system: OVCAR-8
HL-60 = system: HL-60
SF-295 = system: SF-295
SK-MEL-28 = system: SK-MEL-28
A498 = system: A498
786-0 = system: 786-0
NCI-H460 = system: NCI-H460
SR = system: SR
HT-29 = system: HT-29
SK-OV-3 = system: SK-OV-3
SW-620 = system: SW-620
HCC 2998 = system: HCC 2998
KM12 = system: KM12
HOP-18 = system: HOP-18
SK-MEL-5 = system: SK-MEL-5
SN12C = system: SN12C
CCRF-CEM = system: CCRF-CEM
MDA-N = system: MDA-N
DU-145 = system: DU-145

SMILES | GI50 (NCI-H226) | GI50 (OVCAR-8) | GI50 (HL-60) | GI50 (SF-295) | GI50 (SK-MEL-28) | GI50 (A498) | GI50 (786-0) | GI50 (NCI-H460) | GI50 (SR) | GI50 (HT-29) | GI50 (SK-OV-3) | GI50 (SW-620) | GI50 (HCC 2998) | GI50 (KM12) | GI50 (HOP-18) | GI50 (SK-MEL-5) | GI50 (SN12C) | GI50 (CCRF-CEM) | GI50 (MDA-N) | GI50 (DU-145)
CS(=O)(=O)Sc1ccc(Cl)cc1 | 7.48 µM (inactive) | 7.87 µM (inactive) | 4.42 µM (inactive) | 3.04 µM (inactive) | 11.5 µM (inactive) | 2.38 µM (inactive) | 6.32 µM (inactive) | 10.9 µM (inactive) | 3.59 µM (inactive) | 9.75 µM (inactive) | 23.5 µM (inactive) | 12.7 µM (inactive) | 11.2 µM (inactive) | 7.19 µM (inactive) | 26.8 µM (inactive) | 7.83 µM (inactive) | 3.69 µM (inactive) | 2.54 µM (inactive) |  | 
CC(C)NC1CCCCC2c3ccccc3C12O (stereo not given) | > 100 µM (inactive) | > 100 µM (inactive) | > 100 µM (inactive) | > 100 µM (inactive) | > 100 µM (inactive) |  | > 100 µM (inactive) | > 100 µM (inactive) | > 100 µM (inactive) | > 100 µM (inactive) | > 100 µM (inactive) | > 100 µM (inactive) |  | > 100 µM (inactive) | > 100 µM (inactive) | > 100 µM (inactive) | > 100 µM (inactive) | > 100 µM (inactive) |  | 
C/C(=N\NS(=O)(=O)c1ccc(C)cc1)C(CN1CCCCC1)C(c1ccccc1)c1c(O)c2ccccc2oc1=O (stereo not given) | > 100 µM (inactive) | > 100 µM (inactive) | > 100 µM (inactive) | > 100 µM (inactive) |  | > 100 µM (inactive) | > 100 µM (inactive) | > 100 µM (inactive) | 57 µM (inactive) | > 100 µM (inactive) | > 100 µM (inactive) | 70.6 µM (inactive) | > 100 µM (inactive) | > 100 µM (inactive) | > 100 µM (inactive) | > 100 µM (inactive) | > 100 µM (inactive) | > 100 µM (inactive) |  | 
O=C1C(Cl)=C(Cl)C(=O)N1c1ccc(F)cc1 [FLUOROIMIDE] | 42.7 µM (inactive) | 21.1 µM (inactive) | 1.89 µM (inactive) | > 53.2 µM (inactive) | 19.7 µM (inactive) | > 100 µM (inactive) | 16.4 µM (inactive) | > 83.6 µM (inactive) | 6.98 µM (inactive) | 22.5 µM (inactive) | 28.6 µM (inactive) | 16.9 µM (inactive) | 19.6 µM (inactive) | 20.8 µM (inactive) | 21.1 µM (inactive) | 38.3 µM (inactive) | 19.1 µM (inactive) | 2.75 µM (inactive) | 19.5 µM (inactive) | 37.9 µM (inactive)
Nc1nc(SCC(=O)c2ccccc2)c2[nH]cnc2n1 | > 100 µM (inactive) | > 100 µM (inactive) | > 100 µM (inactive) | > 100 µM (inactive) | > 100 µM (inactive) | > 100 µM (inactive) | > 100 µM (inactive) | > 100 µM (inactive) | > 100 µM (inactive) | > 100 µM (inactive) | > 100 µM (inactive) | > 100 µM (inactive) | > 100 µM (inactive) | > 100 µM (inactive) | > 100 µM (inactive) | > 100 µM (inactive) | > 100 µM (inactive) | 51.6 µM (inactive) |  | 
CCCCCCCCCCCc1c(O)c(=O)c2c(oc3c(=O)c(CCCCCCCCCCC)c(O)c(=O)c3n2-c2ccc(N(C)C)cc2)c1=O | 19.3 µM (inactive) | 23.3 µM (inactive) | 27.1 µM (inactive) | 21.8 µM (inactive) | 18 µM (inactive) | 20.7 µM (inactive) | 17.5 µM (inactive) | 18.6 µM (inactive) | 65.2 µM (inactive) | 23.1 µM (inactive) | 19.7 µM (inactive) | 24 µM (inactive) |  | 12.9 µM (inactive) | 22.6 µM (inactive) | 18.7 µM (inactive) | 19.2 µM (inactive) | 26 µM (inactive) |  | 
CCCCc1c2c(nc3c1CCC/C3=C\c1ccccc1)C(=O)C(CN(C)C)CC2 (stereo not given) | 22.6 µM (inactive) | 20.8 µM (inactive) | 2.67 µM (inactive) | 16.7 µM (inactive) | 14.8 µM (inactive) | 18.7 µM (inactive) | 10 µM (inactive) | 17.3 µM (inactive) | 2.76 µM (inactive) | 12.4 µM (inactive) | 18.5 µM (inactive) | 10.4 µM (inactive) | 28 µM (inactive) | 16.9 µM (inactive) | 23.6 µM (inactive) | 16.9 µM (inactive) | 20.1 µM (inactive) | 3.17 µM (inactive) | 7.28 µM (inactive) | 15.6 µM (inactive)
CCSc1nc(N2CCCC2)s[s+]1.[O-][Cl+3]([O-])([O-])[O-] | 63.4 µM (inactive) | 39.3 µM (inactive) | 2.92 µM (inactive) | 54.6 µM (inactive) | 36.5 µM (inactive) | 6.75 µM (inactive) | 58.1 µM (inactive) | 0.225 µM (active) | 1.04 µM (active) | 0.582 µM (active) | 84.1 µM (inactive) | 34.4 µM (inactive) | 73.6 µM (inactive) | 39.4 µM (inactive) | > 100 µM (inactive) | 0.08 µM (active) | 46.1 µM (inactive) | 0.764 µM (active) | 16.3 µM (inactive) | > 100 µM (inactive)
CN(C)c1nc(Oc2nc(N(C)C)nc(N(C)C)n2)nc(N(C)C)n1 | > 100 µM (inactive) | 93.8 µM (inactive) | 52.5 µM (inactive) | > 100 µM (inactive) | > 100 µM (inactive) | > 100 µM (inactive) | > 100 µM (inactive) | > 100 µM (inactive) | > 100 µM (inactive) | > 100 µM (inactive) | > 100 µM (inactive) | > 100 µM (inactive) | 88.7 µM (inactive) | 62.5 µM (inactive) | > 100 µM (inactive) | > 100 µM (inactive) | > 100 µM (inactive) | > 100 µM (inactive) |  | 
C=CCc1cc(OC)c2c(c1)C(O)CC(c1ccc(OC)c(OC)c1)O2 (stereo not given) | > 100 µM (inactive) | > 100 µM (inactive) | 24.9 µM (inactive) | > 100 µM (inactive) | > 100 µM (inactive) |  | > 100 µM (inactive) | > 100 µM (inactive) | > 100 µM (inactive) | > 100 µM (inactive) | > 100 µM (inactive) | > 100 µM (inactive) | > 100 µM (inactive) | > 100 µM (inactive) | > 100 µM (inactive) | 58.3 µM (inactive) | > 100 µM (inactive) | > 100 µM (inactive) |  | 
O=C(O)C12C3CCCC1C2CC3 (stereo not given) | > 100 µM (inactive) | > 100 µM (inactive) | > 100 µM (inactive) | > 100 µM (inactive) | > 100 µM (inactive) | > 100 µM (inactive) | > 100 µM (inactive) | > 100 µM (inactive) | > 100 µM (inactive) | > 100 µM (inactive) | > 100 µM (inactive) |  |  | > 100 µM (inactive) | > 100 µM (inactive) | > 100 µM (inactive) | > 100 µM (inactive) | > 100 µM (inactive) |  | 
O=C(O)CC(NC(=O)CP(=O)(O)O)C(=O)O (stereo not given) | 2280 µM (inactive) | 149 µM (inactive) | 283 µM (inactive) | 44.9 µM (inactive) |  | 2470 µM (inactive) | 40 µM (inactive) | 25.4 µM (inactive) |  | 185 µM (inactive) | 5730 µM (inactive) | 285 µM (inactive) | 7930 µM (inactive) | 149 µM (inactive) | 3100 µM (inactive) | 101 µM (inactive) | 724 µM (inactive) | 682 µM (inactive) | 221 µM (inactive) | 933 µM (inactive)
